Data as given in patent US20210253598A1, “ARYL ANNULATED MACROCYCLIC INDOLE DERIVATIVES” (priority 2017, published 2021).
Where a name gives a salt, the structure may show the parent alone. Read-outs that look alike come from different tables or passages of the source.

How the values were obtained:
MCL-1 [1] = target: T1, MCL-1 (Homo sapiens, UniProt Q07820, K194A/K197A/R201A); assay: Protein-protein interaction assay MCL-1/Noxa BH3 peptide, TR-FRET (MCL-1 assay, Assay 1); type: binding; conditions: MBP-MCL-1 / Noxa BH3 peptide
T1 sequence (Q07820 173-321 K194A/K197A/R201A, looked up): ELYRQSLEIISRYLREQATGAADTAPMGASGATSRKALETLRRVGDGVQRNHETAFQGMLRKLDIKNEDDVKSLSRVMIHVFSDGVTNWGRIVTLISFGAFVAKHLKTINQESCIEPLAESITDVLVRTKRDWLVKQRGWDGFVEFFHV
Method in brief: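 TR-FRET competition between compounds and a biotin-PEG Noxa BH3 tracer for 1 nM MBP-MCL-1 (residues 173-321). Incubation was 1 h at 22 °C in the dark, then overnight at 4 °C, in 50 mM Tris pH 7 buffer with KF and DTT, after a 10-min compound pre-equilibration. Normalized ratios were fitted with a 4-parameter Hill equation to give IC50.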

AMO-1 = assay: Anti-proliferative effect in AMO-1 cells, CellTiter-Glo (Assay 7); type: cell-based
Method in brief: (§1)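 Cells were plated and incubated overnight at 37 °C alongside a day 0 reference plate, then exposed to compound for 72 h. Viability was read by CellTiter-Glo luminescence, and IC50s were calculated using day 0 values and DMSO controls as references.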

MV-4-11 = assay: Anti-proliferative effect in MV-4-11 cells, CellTiter-Glo (Assay 7); type: cell-based
Method in brief: as §1

BCL-XL = BCL-XL (Homo sapiens, UniProt Q07817); assay: Protein-protein interaction assay BCL-XL/Bad BH3 peptide, TR-FRET (BCL-XL assay, Assay 2); type: binding; conditions: His-BCL-XL / Bad BH3 peptide, median
Sequence of BCL-XL (Q07817 1-212): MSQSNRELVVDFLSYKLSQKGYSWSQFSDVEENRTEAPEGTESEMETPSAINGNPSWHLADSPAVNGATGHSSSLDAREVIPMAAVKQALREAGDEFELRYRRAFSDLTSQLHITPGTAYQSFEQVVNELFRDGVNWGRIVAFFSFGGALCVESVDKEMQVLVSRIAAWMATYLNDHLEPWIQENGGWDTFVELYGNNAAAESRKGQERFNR
Protocol: Protein-Protein Interaction Assay: BCL-XL/Bad BH3 Peptide (BCL-XL Assay)
The dose-dependent inhibition by the compounds described in this invention of the interaction between BCL-XL and the BH3 domain of Bad (both human) was determined using a steady state binding competition assay with time-resolved fluorescence energy transfer (TR-FRET) readout. For that purpose BCL-XL (amino acids 1-212, C-terminal fused to a hexahistidine (6×His) tag (SEQ ID 3) and a synthetic Bad BH3-derived peptide of sequence Biotin-PEG2-PEG2-[sequence]-Nle-[sequence]-amide (SEQ ID 4) served as protein receptor and tracer ligand respectively. The recombinant BCL-XL protein (expressed in E. coli) was purchased from BPS Bioscience (San Diego, Calif., USA). The Bad BH3-derived peptide can be obtained from e.g. Biosyntan (Berlin, Germany).
For that, 100-fold concentrated DMSO solutions were prepared by serial dilutions (1:3.4) of a 2 mM stock solution in a clear, 384-well microtiter plate (Greiner Bio-One, Frickenhausen, Germany). From there, 50 nl were transferred in a dark test plate (Greiner Bio-One, Frickenhausen, Germany). The assay was initiated by addition of 2 μl of a 2,5-fold concentrated His-BCL-XL solution (usually for a 1 nM end concentration in 5 μl reaction volume) in aqueous assay buffer [50 mM Tris/HCl pH 7, 100 mM sodium chloride (NaCl), 50 mM potassium fluoride (KF), 0.005% Tween-20, 2 mM DTT, 0.1% bovine gamma globulin (BGG)] to the compounds in the assay plate. This was followed by a 10-minute incubation step at 22° C. for pre-equilibration of the putative complex between His-BCL-XL and the compounds.
The mixture was incubated in the dark for one hour at 22° C. and then overnight at 4° C. The formation of BCL-XL/Bad complexes was determined by measuring the resonance energy transfer of the anti-His- Eu-cryptate antibody to the streptavidin-XL665 present in the reaction. For that purpose, the fluorescence emission at 620 nm and 665 nm after excitation at 330-350 nm was measured in a TR-FRET measuring instrument, for instance a Rubystar or a Pherastar (both from BMG Lab Technologies, Offenburg, Germany) or a Viewlux (Perkin-Elmer). The ratio of the emission at 665 nm and at 622 nm was used as indicator of the amount of BCL-XL/Bad complexes present.
The resulting data (ratio) were normalized, taking 0% inhibition as the mean value of control measurements (usually 32 data points) where all reagents were included. In this case 50 nl DMSO were used instead of compounds. […] IC50 values were determined by regression analysis based on a 4 parameter equation (minimum, maximum, IC50, Hill; Y=Max+(Min−Max)/(1+(X/IC50)^Hill) using the Screener Software (Genedata).

HMC-1-8 = assay: Anti-proliferative effect in HMC-1-8 cells, CellTiter-Glo (Assay 7); type: cell-based
Protocol: Assessment of the Anti-Proliferative Effect of Compounds in Different Cell Lines
The impact of compounds on the proliferation of different cell lines was assessed using the CellTiter-Glo® Luminescent Cell Viability reagent from Promega (G7573).
In parallel, cells were plated in a reference (day 0) plate for time zero determination. Cells were incubated in a humidified incubator at 37° C. overnight.
Rim wells were excluded. The cells were incubated for 72 hours in a humidified incubator at 37° C. The day 0 plate was measured by adding 30 μL/well of CTG solution (CellTiter-Glo® Luminescent Cell Viability reagent, Promega G7573) to time zero wells in the reference plate followed by a 10 minutes incubation and luminescence reading at 0.1 ms. using the PHERAstar FS microplate reader (BMG Labtech).
After 72 hours incubation, the treated plates were measured in the same way as the day 0 plate mentioned above. The Bella DRC Master Sheet was used to calculate IC50s, with CI=day 0 values and C0=DMSO control values.

SUDHL5 = assay: Anti-proliferative effect in SUDHL5 cells, CellTiter-Glo (Assay 7); type: cell-based
Method in brief: as §1

MCL-1 [2] = target: T1, MCL-1; assay: Protein-compound interaction assay, surface plasmon resonance (SPR assay, Assay 8); type: binding; conditions: KD [M], SPR, immobilized MBP-MCL-1, 25° C.; geometric mean
From the text: Protein-Compound Interaction Assay (SPR Assay)
The ability of the compounds described in this invention to bind to MCL-1 may be determined using surface plasmon resonance (SPR). This allows for the quantification of binding in terms of the equilibrium dissociation constant (KD [M]), as well as association and dissociation rate constants (kon [1/M 1/s] and koff [1/s], respectively). The measurements may be performed using Biacore® T200 or Biacore® S200 instruments (GE Healthcare).
Briefly, carboxymethylated dextran biosensor chips (Series S Sensor Chip CM5, GE Healthcare) were activated with 1-ethyl-3-(3-dimethylaminopropyl)-carbodiimide hydrochloride (EDC) and N-hydroxysuccinimide (NHS) according to the supplier's instructions. MBP-MCL-1 was diluted in 1×PBS-P+ (GE Healthcare) and injected on the activated chip surface. Subsequently, a solution of 1 M ethanolamine-HCl (GE Healthcare) was injected to block unreacted groups, resulting in approximately 400-2500 response units (RU) of immobilized protein. A reference surface was generated by treatment with NHS-EDC and ethanolamine-HCl. […] Compounds were injected for 60 s followed by a dissociation time of up to 1000 s.
The double-referenced sensorgrams were fit to a simple reversible Langmuir 1:1 reaction mechanism as implemented in the Biacore® T200 and S200 evaluation software (T200 evaluation software version 2.0 and S200 evaluation software version 1.0, GE Healthcare).

[3] = read-out: Antiproli AMO-1; AMO-1, 72 hours incubation, CellTiter-Glo; several values per example
[4] = read-out: Antiproli MV-4-11; MV-4-11, 72 hours incubation, CellTiter-Glo; several values per example
[5] = read-out: Antiproli HMC-1-8, HMC-1-8, 72 hours incubation
[6] = read-out: Antiproli SUDHL5 [M] (median), SUDHL5, 72 hours incubation, CellTiter-Glo

Structure (SMILES) | IC50 (MCL-1 [1]; median, read-out: MCL-1 Assay [M] (median)) | IC50 (AMO-1; AMO-1, 72 hours incubation, CellTiter-Glo; several values per example; read-out: Antiproli AMO-1) [nM] | IC50 (MV-4-11; MV-4-11, 72 hours incubation, CellTiter-Glo; several values per example; read-out: Antiproli MV-4-11) [nM] | IC50 (BCL-XL) [nM] | IC50 (HMC-1-8; HMC-1-8, 72 hours incubation, read-out: Antiproli HMC-1-8) [nM] | IC50 (SUDHL5; SUDHL5, 72 hours incubation, CellTiter-Glo, median, read-out: Antiproli SUDHL5 [M] (median)) | IC50 (MCL-1 [1]; MCL-1 Assay [M] (median)) | IC50 (AMO-1; [3]) [nM] | IC50 (MV-4-11; [4]) [nM] | IC50 (HMC-1-8; [5]) [nM] | IC50 (SUDHL5; [6]) [M] | Kd (MCL-1 [2]) [M]
CCc1nn(C)c2c1-c1c(Cl)ccc3c(CCCOc4cccc5cc(F)ccc45)c(C(=O)O)n(c13)Cc1ccccc1COC2 (single isomer, unassigned; enantiomer 1) [Example 58, (+)-3-Chloro-4-ethyl-17-{3-[(6-fluoronaphthalen-1-yl)oxy]propyl}-6-methyl-6,7,9,14-tetrahydro-indolo[7,1-fg]pyrazolo[3,4-d][2,8]benzoxazacycloundecine-16-carboxylic acid-N-ethylethanamine Salt (Enantiomer 1)] | 2.6e-09 | 1610 | 1360 | 17300 | 3870 | 1.2e-06 |  |  |  |  |  | 
CCc1c2c(nn1C)COCc1ccccc1Cn1c(C(=O)O)c(CCCOc3cccc4cc(F)ccc34)c3ccc(Cl)c-2c31 (single isomer, unassigned; enantiomer 2) [Example 56, (+)-3-Chloro-4-ethyl-17-{3-[(6-fluoronaphthalen-1-yl)oxy]propyl}-5-methyl-5,7,9,14-tetrahydro-indolo[7,1-fg]pyrazolo[3,4-d][2,8]benzoxazacycloundecine-16-carboxylic Acid N-ethylethanamine Salt (Enantiomer 2)] |  |  |  |  |  |  | 3.2e-09 | 4200 | 2770 | 10900 | 2.1e-06 | 
CCc1c2c(nn1C)COCc1ccccc1Cn1c(C(=O)O)c(CCCOc3cccc4cc(F)ccc34)c3ccc(Cl)c-2c31 (single isomer, unassigned; enantiomer 1) [Example 55, (−)-3-Chloro-4-ethyl-17-{3-[(6-fluoronaphthalen-1-yl)oxy]propyl}-5-methyl-5,7,9,14-tetrahydro-indolo[7,1-fg]pyrazolo[3,4-d][2,8]benzoxazacycloundecine-16-carboxylic Acid N-ethylethanamine Salt (Enantiomer 1)] |  |  |  | > 20000 |  |  |  | 1190 | 964 | 2390 | 1e-06 | 3.9e-09
